Test results reported in patent publication US9492471B2, “Methods of treating a disease or disorder associated with Bruton'S Tyrosine Kinase” (Celgene Avilomics Research, Inc., priority 2013, dated 2016).
Like-named read-outs stand apart in the source and are kept apart here.

What was measured:
Test in all cases: HotSpot kinase profiling
Format in all cases: biochemical
MKK4 = target: T1, MKK4 (Homo sapiens, UniProt P45985)
T1 construct: purchased Reaction Biology Corp
T1 sequence (P45985 1-399): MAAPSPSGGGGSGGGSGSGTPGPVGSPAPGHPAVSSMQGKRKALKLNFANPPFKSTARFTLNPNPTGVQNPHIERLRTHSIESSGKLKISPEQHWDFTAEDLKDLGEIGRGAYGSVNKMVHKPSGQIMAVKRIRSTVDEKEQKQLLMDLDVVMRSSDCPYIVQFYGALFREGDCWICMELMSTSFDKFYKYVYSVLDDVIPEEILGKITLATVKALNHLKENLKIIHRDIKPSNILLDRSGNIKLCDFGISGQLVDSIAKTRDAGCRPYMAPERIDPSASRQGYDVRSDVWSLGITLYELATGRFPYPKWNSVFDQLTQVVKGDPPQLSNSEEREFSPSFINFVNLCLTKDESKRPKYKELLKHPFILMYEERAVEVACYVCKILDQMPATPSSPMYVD
Experimental: (§1) The binding assay system for profiling kinase activity were based upon HotSpot technology (Reaction Biology Corp.; Malvern, Pa., USA) and utilized radio-isotope-based P81 filtration. […] Substrates for the various kinases tested against Compound 2 (substrate information available on the Reaction Biology Corp. website) were prepared fresh daily in Reaction Buffer. Any required cofactors were then added to the substrate solution. The identification and selection of the appropriate cofactor for each kinase is within the ability of a person skilled in the art. See, for example, Handbook of Assay Development in Drug Discovery, Ed. Lisa K. Minor, 2006: CRC Press, Boca Raton, Fla.; Gao et al., “A broad activity screen in support of a chemogenomic map for kinase signalling research and drug discovery,” Biochem J. 2013, 451(2): 313-28; and Eglen et al., “Drug discovery and the human kinome: Recent trends,” Pharmacology & Therapeutics 2011, 130(2): 144-156. The kinase was then added to the substrate solution and gently mixed. […] This was followed by incubation at room temperature for 2 h. The reaction was terminated and any unreacted phosphate was washed away using 0.1% phosphoric acid prior to detection utilizing a proprietary technology. […] DMSO was used as the negative control.
(§2) Percent inhibition was expressed as an average where the assay was performed more than once, e.g., in duplicate.

PAK5 = target: T2, PAK5 (Homo sapiens, UniProt Q9P286)
T2 construct: purchased Reaction Biology Corp
T2 sequence (Q9P286 whole entry): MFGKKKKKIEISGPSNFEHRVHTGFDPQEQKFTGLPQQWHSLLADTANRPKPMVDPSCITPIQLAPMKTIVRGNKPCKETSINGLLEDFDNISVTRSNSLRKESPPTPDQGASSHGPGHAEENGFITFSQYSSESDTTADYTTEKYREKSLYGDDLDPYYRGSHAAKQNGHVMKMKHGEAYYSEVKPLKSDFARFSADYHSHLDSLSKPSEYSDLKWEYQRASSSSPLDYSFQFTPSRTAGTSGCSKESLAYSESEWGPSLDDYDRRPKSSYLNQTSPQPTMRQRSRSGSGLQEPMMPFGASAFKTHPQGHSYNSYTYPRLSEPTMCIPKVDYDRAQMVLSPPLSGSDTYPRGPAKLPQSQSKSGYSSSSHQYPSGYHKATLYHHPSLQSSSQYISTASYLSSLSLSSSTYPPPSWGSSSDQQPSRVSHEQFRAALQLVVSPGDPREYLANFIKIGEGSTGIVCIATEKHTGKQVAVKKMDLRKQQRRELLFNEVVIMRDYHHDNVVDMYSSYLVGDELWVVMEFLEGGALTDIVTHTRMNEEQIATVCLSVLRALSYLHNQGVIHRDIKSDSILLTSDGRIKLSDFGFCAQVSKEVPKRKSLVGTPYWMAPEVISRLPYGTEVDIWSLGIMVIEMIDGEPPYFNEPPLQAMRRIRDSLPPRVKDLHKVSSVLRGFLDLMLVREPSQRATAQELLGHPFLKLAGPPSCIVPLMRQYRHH
Experimental: as §1, §2

ALK6/BMPR1B = target: T3, ALK6/BMPR1B (Homo sapiens, UniProt O00238)
T3 construct: purchased Reaction Biology Corp
T3 sequence (O00238 14-502): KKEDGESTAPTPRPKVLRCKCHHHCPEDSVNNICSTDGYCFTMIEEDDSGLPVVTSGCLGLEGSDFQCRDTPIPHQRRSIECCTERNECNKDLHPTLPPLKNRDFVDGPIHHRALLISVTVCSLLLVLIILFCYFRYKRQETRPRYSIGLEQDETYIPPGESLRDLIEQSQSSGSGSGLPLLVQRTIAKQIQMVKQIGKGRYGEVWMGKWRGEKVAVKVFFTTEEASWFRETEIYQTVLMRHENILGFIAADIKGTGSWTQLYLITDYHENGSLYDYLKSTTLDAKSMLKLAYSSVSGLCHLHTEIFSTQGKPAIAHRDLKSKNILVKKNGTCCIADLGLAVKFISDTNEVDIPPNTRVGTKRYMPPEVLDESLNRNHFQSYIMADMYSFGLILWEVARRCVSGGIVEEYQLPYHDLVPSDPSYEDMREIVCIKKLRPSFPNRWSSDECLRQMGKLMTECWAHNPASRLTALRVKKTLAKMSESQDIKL
Experimental: as §1, §2

Aurora B = target: T4, Aurora B (Homo sapiens, UniProt Q96GD4)
T4 construct: purchased Reaction Biology Corp
T4 sequence (Q96GD4 whole entry): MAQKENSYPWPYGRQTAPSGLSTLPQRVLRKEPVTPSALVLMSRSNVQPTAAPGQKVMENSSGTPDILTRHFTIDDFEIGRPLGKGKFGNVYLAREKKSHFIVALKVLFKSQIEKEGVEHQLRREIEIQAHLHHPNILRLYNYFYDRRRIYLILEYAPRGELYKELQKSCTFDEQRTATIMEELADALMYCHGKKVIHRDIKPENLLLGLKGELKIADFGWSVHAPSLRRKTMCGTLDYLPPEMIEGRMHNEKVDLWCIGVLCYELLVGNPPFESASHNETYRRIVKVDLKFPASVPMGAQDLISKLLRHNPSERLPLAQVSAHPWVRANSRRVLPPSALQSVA
Experimental: as §1, §2

BLK = target: T5, BLK (Homo sapiens, UniProt P51451)
T5 construct: purchased Reaction Biology Corp
T5 sequence (P51451 whole entry): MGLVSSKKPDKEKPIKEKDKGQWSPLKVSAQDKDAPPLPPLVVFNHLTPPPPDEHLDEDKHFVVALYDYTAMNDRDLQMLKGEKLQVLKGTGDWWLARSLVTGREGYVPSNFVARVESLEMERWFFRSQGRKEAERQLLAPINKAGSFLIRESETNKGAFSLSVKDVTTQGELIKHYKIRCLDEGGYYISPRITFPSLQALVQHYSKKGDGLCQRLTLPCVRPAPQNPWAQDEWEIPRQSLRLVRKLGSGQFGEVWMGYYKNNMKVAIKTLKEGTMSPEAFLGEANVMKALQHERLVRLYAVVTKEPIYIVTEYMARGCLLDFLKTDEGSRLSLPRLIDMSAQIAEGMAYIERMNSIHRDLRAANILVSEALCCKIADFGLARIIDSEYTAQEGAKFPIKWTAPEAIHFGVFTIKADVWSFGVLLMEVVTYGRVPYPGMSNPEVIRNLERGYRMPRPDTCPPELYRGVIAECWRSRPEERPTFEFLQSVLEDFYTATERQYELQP
Experimental: as §1, §2

NLK = target: T6, NLK (Homo sapiens, UniProt Q9UBE8)
T6 construct: purchased Reaction Biology Corp
T6 sequence (Q9UBE8 1-527): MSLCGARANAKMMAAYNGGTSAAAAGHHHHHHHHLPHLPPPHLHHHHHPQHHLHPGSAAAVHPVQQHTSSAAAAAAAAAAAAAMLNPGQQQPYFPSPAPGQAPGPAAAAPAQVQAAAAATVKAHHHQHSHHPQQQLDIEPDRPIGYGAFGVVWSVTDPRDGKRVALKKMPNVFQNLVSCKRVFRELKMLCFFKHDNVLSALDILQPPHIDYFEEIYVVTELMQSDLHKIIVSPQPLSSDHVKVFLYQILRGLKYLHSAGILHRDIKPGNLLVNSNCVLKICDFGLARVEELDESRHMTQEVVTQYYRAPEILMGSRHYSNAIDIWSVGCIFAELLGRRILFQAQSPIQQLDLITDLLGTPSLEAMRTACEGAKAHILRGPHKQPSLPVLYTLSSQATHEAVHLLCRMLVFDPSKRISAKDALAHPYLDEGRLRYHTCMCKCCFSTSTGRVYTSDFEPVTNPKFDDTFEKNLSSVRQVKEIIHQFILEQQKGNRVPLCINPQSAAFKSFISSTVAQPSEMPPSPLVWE
Experimental: as §1, §2

PIM1 = target: T7, PIM1 (Homo sapiens, UniProt P11309)
T7 construct: purchased Reaction Biology Corp
T7 sequence (P11309 whole entry): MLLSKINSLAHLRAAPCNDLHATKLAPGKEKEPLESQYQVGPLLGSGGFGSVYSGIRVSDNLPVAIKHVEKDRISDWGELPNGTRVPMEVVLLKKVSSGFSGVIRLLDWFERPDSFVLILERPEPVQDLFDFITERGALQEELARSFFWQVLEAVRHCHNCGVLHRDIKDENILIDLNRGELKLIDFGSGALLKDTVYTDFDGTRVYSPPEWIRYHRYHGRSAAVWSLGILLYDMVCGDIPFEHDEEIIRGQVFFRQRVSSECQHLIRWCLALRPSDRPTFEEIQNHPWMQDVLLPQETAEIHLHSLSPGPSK
Experimental: as §1, §2

SIK3 = target: T8, SIK3 (Homo sapiens, UniProt Q9Y2K2)
T8 construct: purchased Reaction Biology Corp
T8 sequence (Q9Y2K2 whole entry): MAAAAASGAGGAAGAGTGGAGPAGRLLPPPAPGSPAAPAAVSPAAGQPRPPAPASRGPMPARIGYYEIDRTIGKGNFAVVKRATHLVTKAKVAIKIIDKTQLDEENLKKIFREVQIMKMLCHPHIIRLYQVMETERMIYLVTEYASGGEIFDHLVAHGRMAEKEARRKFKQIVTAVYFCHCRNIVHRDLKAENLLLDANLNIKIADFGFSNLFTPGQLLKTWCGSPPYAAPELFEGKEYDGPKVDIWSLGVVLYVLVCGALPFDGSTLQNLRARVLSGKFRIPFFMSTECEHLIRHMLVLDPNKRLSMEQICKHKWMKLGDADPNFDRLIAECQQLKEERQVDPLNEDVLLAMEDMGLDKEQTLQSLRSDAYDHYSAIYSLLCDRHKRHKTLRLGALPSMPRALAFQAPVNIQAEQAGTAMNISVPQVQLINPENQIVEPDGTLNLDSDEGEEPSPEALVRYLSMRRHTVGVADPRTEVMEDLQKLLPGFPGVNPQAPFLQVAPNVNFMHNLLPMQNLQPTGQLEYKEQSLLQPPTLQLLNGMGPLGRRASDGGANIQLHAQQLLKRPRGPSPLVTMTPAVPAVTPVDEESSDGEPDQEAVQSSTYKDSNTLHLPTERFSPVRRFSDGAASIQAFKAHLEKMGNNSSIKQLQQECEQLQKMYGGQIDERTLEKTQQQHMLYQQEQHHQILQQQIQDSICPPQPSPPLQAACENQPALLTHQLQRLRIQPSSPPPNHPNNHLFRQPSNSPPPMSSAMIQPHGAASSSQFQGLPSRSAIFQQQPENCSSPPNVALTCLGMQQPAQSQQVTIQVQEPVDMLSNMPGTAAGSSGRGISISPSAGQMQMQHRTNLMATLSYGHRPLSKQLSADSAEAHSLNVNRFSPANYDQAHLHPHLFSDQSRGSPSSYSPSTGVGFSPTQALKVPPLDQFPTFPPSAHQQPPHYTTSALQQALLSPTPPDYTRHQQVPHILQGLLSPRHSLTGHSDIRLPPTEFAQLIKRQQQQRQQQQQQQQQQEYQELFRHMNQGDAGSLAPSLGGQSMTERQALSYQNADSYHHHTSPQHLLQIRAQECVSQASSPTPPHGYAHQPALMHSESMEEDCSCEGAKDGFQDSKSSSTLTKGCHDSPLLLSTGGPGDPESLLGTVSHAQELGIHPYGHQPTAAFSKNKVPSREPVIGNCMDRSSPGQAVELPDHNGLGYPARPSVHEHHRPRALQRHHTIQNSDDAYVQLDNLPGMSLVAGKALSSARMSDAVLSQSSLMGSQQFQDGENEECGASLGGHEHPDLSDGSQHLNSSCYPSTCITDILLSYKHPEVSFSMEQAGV
Experimental: as §1, §2

TIE2/TEK = target: T9, TIE2/TEK (Homo sapiens, UniProt Q02763)
T9 construct: purchased Reaction Biology Corp
Experimental: as §1, §2

CAMK1b = target: T10, CAMK1b (Homo sapiens, UniProt Q6P2M8)
T10 construct: purchased Reaction Biology Corp
T10 sequence (Q6P2M8 whole entry): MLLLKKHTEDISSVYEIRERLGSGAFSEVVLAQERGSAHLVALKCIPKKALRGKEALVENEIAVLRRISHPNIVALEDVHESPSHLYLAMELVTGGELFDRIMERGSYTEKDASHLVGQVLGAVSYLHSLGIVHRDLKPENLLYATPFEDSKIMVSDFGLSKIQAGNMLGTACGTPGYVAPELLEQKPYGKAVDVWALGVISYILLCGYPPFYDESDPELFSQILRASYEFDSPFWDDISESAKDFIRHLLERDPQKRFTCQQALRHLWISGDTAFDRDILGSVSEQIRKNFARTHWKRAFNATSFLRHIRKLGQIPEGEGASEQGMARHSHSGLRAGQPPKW
Experimental: as §1, §2

GRK7 = target: T11, GRK7 (Homo sapiens, UniProt Q8WTQ7)
T11 construct: purchased Reaction Biology Corp
T11 sequence (Q8WTQ7 1-553): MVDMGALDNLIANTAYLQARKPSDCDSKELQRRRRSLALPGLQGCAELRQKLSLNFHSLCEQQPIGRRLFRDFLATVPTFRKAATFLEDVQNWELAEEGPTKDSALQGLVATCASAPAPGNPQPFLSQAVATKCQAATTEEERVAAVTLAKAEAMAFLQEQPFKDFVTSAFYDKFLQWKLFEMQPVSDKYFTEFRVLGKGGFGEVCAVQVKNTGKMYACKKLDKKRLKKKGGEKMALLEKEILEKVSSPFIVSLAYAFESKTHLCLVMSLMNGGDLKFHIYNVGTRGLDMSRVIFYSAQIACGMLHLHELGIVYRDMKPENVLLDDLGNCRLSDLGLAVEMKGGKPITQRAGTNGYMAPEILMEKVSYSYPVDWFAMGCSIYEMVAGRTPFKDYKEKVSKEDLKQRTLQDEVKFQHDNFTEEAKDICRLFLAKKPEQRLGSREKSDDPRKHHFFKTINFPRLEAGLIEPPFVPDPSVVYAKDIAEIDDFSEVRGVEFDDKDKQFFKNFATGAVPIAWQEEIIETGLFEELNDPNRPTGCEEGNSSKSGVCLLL
Experimental: as §1, §2

[1] = read-out: % Enzyme Activity (relative to DMSO controls) Run 1
[2] = read-out: % Enzyme Activity (relative to DMSO controls) Run 2

Question: What does the source list for C=CC(=O)Nc1cccc(Nc2nc(Nc3ccc(OCCOC)c(F)c3)ncc2F)c1 [Compound 2]?
Answer: inhibition at 3 µM (MKK4): -16.6%; remaining activity at 3 µM (MKK4; [1]): 117%; remaining activity at 3 µM (MKK4; [2]): 116%; inhibition at 3 µM (PAK5): -27.4%; remaining activity at 3 µM (PAK5; [1]): 123%; remaining activity at 3 µM (PAK5; [2]): 132%; inhibition at 3 µM (ALK6/BMPR1B): -80.4%; remaining activity at 3 µM (ALK6/BMPR1B; [1]): 177%; remaining activity at 3 µM (ALK6/BMPR1B; [2]): 184%; inhibition at 3 µM (Aurora B): 86.9%; remaining activity at 3 µM (Aurora B; [1]): 13.2%; remaining activity at 3 µM (Aurora B; [2]): 12.9%; inhibition at 3 µM (BLK): 93.7%; remaining activity at 3 µM (BLK; [1]): 6.3%; remaining activity at 3 µM (BLK; [2]): 6.37%; inhibition at 3 µM (NLK): -1.29%; remaining activity at 3 µM (NLK; [1]): 99.6%; remaining activity at 3 µM (NLK; [2]): 103%; inhibition at 3 µM (PIM1): -3.82%; remaining activity at 3 µM (PIM1; [1]): 104%; remaining activity at 3 µM (PIM1; [2]): 104%; inhibition at 3 µM (SIK3): 7.93%; remaining activity at 3 µM (SIK3; [1]): 91.3%; remaining activity at 3 µM (SIK3; [2]): 92.8%; inhibition at 3 µM (TIE2/TEK): -5.21%; remaining activity at 3 µM (TIE2/TEK; [1]): 103%; remaining activity at 3 µM (TIE2/TEK; [2]): 108%; inhibition at 3 µM (CAMK1b): -4.43%; remaining activity at 3 µM (CAMK1b; [1]): 104%; remaining activity at 3 µM (CAMK1b; [2]): 105%; inhibition at 3 µM (GRK7): 9.96%; remaining activity at 3 µM (GRK7; [1]): 89.1%; remaining activity at 3 µM (GRK7; [2]): 90.9%
